Measured values taken from the supplement of paper PMC12463676, “Small-molecule dissolution of stress granules by redox modulation benefits ALS models” (Nature Chemical Biology, 2025).

Experiments:
potassium arsenate = compound: O=[As]([O-])(O)O.[K+] [potassium arsenate]; test: thermal stability z-score vs DMSO; higher = more thermally stabilized by treatment; details: HeLa; arsenate concentration 1 mM
Description: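 Cellular thermal proteome profiling in HeLa cells treated with 1 mM arsenate for 1 h (DMSO pretreatment), heated to ten temperatures (37-66.3 °C). Soluble protein was quantified by TMT mass spectrometry relative to DMSO controls; the thermal stability score was transformed to a z-score; mean of n = 3 experiments.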

lipoamide = compound: NC(=O)CCCCC1CCSS1 [lipoamide]; test: as above; details: HeLa, lipoamide concentration 100 µM
Description: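 Cellular thermal proteome profiling in HeLa cells. Cells were treated with 100 µM lipoamide for 1 h, with or without 1 mM arsenate for a further 1 h, then heated to ten temperatures (37-66.3 °C), and soluble protein was quantified by TMT mass spectrometry relative to 0.1% DMSO controls. The thermal stability score (sum of log2 fold changes minus the abundance score) was transformed to a z-score; mean of n = 3 experiments.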

[1] = arsenate co-treatment: 1 mM arsenate 1 h
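Also: each temperature applied for 3 min, abundance score taken as mean log2 fold change at the two lowest temperatures, z-score obtained by mean subtraction and division by SD.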

UniProt Q96BW1, sequence (Q96BW1 whole entry): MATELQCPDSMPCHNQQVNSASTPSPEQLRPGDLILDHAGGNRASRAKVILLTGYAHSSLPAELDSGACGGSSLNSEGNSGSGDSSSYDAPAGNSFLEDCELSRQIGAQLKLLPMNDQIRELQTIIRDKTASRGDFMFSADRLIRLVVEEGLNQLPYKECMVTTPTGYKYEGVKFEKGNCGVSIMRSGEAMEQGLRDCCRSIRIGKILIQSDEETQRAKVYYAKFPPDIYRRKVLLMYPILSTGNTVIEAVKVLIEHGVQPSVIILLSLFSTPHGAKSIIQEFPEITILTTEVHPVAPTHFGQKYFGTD
UniProt Q712K3, sequence (Q712K3 whole entry): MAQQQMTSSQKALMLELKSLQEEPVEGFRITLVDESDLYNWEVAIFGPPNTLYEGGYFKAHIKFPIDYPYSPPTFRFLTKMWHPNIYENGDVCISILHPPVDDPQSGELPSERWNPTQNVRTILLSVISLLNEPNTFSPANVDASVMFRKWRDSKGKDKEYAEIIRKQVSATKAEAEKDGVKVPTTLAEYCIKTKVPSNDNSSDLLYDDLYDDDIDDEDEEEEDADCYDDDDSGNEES
UniProt Q9P2E9, sequence (Q9P2E9 whole entry): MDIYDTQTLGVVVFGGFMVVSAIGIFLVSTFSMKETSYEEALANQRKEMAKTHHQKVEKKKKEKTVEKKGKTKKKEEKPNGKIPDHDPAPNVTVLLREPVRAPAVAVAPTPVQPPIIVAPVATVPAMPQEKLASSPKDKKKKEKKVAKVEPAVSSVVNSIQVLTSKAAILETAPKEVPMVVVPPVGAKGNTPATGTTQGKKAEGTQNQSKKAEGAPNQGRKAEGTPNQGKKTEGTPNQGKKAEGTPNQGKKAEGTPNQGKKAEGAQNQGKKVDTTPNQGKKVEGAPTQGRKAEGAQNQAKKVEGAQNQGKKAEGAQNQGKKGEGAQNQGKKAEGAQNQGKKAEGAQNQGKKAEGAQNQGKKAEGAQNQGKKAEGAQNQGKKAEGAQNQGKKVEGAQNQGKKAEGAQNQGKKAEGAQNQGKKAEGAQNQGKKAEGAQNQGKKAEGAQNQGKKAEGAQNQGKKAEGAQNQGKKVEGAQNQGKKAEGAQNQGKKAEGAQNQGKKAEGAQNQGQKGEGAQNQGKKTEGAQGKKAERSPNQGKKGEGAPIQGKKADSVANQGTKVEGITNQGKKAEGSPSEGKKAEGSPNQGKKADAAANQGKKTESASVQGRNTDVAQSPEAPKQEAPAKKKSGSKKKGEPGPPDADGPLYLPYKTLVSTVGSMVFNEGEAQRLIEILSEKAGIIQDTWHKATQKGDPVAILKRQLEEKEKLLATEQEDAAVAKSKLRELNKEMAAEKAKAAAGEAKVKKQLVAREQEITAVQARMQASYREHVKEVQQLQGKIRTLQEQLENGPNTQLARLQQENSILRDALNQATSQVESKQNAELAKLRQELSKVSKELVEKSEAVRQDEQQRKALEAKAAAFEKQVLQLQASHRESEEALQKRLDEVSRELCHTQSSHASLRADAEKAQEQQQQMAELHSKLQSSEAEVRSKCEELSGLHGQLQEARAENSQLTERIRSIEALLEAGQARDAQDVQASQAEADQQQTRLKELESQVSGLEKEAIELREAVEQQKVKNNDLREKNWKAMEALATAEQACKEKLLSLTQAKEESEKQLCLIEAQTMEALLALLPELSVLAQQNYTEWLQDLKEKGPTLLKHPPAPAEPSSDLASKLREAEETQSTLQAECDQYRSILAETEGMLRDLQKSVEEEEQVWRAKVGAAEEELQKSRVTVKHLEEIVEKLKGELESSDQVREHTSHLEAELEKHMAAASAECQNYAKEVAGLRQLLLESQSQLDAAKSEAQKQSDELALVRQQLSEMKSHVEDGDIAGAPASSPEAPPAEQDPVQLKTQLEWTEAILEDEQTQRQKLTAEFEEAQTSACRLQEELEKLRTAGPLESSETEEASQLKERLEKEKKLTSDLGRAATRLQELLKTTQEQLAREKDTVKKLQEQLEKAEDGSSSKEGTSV
UniProt Q14344, sequence (Q14344 whole entry): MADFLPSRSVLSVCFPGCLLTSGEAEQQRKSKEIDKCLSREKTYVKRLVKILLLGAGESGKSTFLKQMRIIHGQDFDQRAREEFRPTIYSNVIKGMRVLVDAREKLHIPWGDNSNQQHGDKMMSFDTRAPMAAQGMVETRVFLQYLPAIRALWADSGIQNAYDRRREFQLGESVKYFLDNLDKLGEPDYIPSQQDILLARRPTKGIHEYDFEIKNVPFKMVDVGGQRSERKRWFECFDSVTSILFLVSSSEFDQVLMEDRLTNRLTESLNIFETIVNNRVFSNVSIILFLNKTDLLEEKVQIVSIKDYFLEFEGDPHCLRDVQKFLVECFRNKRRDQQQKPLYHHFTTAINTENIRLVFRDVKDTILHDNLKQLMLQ
UniProt P61970, sequence (P61970 whole entry): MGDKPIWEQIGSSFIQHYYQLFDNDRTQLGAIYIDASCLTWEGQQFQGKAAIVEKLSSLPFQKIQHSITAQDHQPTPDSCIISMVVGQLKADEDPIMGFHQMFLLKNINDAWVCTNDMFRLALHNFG
UniProt Q07666, sequence (Q07666 whole entry): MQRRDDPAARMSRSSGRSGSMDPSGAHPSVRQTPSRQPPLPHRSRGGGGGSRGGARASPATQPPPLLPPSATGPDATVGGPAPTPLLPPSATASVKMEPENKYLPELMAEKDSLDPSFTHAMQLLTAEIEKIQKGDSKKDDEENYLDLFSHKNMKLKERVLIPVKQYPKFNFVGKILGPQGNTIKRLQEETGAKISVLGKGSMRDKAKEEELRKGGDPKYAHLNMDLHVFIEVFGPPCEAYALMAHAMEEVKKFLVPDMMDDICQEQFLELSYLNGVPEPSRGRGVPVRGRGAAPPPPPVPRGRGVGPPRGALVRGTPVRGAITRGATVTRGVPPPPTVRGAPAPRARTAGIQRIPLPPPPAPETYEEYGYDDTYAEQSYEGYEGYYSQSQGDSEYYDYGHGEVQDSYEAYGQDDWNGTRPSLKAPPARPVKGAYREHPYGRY
UniProt Q9Y2I7, sequence (Q9Y2I7 whole entry): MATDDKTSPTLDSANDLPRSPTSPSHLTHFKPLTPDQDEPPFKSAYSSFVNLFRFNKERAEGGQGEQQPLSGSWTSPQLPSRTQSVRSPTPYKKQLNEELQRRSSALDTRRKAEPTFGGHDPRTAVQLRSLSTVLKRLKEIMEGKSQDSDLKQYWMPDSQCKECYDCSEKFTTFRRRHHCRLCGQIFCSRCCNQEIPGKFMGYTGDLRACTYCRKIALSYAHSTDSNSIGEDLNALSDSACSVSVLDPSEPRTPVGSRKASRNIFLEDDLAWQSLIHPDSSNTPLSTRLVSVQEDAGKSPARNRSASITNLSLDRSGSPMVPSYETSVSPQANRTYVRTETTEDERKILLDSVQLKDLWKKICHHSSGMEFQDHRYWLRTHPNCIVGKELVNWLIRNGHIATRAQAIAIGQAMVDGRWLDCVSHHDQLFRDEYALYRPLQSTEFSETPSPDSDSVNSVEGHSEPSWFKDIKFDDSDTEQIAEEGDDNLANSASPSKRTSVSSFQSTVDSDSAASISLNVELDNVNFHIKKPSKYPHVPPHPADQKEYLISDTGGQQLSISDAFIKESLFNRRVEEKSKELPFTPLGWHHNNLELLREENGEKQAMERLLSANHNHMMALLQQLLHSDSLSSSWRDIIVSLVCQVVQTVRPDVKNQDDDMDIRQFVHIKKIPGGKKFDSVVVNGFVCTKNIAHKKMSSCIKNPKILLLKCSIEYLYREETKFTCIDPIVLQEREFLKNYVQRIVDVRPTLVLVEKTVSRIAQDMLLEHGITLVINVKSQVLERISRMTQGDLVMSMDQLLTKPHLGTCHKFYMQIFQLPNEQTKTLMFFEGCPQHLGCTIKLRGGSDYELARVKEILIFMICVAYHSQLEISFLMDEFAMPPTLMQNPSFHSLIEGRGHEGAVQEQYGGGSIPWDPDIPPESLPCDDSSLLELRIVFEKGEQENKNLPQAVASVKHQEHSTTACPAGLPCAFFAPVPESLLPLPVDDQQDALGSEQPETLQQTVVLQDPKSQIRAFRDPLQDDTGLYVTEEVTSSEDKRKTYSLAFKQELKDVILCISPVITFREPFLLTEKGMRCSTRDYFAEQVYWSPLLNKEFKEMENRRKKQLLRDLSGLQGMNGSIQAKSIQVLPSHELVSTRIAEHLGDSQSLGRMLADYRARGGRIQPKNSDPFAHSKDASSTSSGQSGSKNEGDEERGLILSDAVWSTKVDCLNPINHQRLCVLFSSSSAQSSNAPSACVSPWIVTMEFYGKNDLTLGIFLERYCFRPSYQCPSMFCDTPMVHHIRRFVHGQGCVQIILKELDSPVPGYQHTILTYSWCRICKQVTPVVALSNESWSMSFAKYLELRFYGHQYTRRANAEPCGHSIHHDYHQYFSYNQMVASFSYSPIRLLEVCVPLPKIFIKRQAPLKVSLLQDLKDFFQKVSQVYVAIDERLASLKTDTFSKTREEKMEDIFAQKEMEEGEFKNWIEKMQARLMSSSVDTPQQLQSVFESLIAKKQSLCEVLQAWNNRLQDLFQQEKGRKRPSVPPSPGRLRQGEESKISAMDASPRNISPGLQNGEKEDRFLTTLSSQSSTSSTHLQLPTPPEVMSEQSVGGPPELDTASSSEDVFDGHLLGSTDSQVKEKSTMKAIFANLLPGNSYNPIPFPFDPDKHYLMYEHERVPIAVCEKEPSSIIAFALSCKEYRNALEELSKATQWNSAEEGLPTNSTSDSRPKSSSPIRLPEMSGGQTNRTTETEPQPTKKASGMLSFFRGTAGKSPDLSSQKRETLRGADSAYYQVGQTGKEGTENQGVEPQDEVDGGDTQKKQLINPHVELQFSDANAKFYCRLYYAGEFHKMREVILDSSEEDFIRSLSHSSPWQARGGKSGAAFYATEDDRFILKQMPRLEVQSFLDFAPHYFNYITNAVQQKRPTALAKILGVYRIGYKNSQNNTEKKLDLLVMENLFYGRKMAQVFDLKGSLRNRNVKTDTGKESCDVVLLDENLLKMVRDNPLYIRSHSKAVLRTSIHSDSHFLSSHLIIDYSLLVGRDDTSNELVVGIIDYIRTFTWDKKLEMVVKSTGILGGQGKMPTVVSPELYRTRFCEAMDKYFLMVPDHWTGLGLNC

Target | thermal stability z-score (potassium arsenate) | thermal stability z-score (lipoamide; [1]) | thermal stability z-score (lipoamide; arsenate co-treatment: none)
COX6B1 (UniProt P14854) | -0.234 | 0.898 | 0.644
ATP6V1G1 (UniProt O75348) | 0.295 | 0.563 | 0.473
KHDRBS1 (UniProt Q07666) | -1.16 | -0.091 | 0.104
RRAGC (UniProt Q9HB90) | -0.786 | 0.182 | -0.182
TRIM65 (UniProt Q6PJ69) | -0.189 | -0.203 | -0.225
FZD2 (UniProt Q14332) | 0.0158 | -1.45 | -1.01
GTPBP6 (UniProt O43824) | 0.043 | 0.0509 | -0.133
PDCD10 (UniProt Q9BUL8) | 0.151 | 0.00718 | -0.0724
LARS (UniProt Q9P2J5) | 0.86 | -0.63 | 0.0502
TIMM50 (UniProt Q3ZCQ8) | -0.391 | -0.412 | -0.179
PTMS (UniProt P20962) | -0.629 | 0.606 | 0.808
ANXA3 (UniProt P12429) | 0.227 | 0.902 | 0.504
PNP (UniProt P00491) | 0.178 | 0.446 | 0.411
CRIM1 (UniProt Q9NZV1) | -2.04 | -2.84 | -1.95
CHCHD1 (UniProt Q96BP2) | -0.0935 | 0.43 | 0.138
REEP4 (UniProt Q9H6H4) | 0.579 | -0.55 | -0.227
OARD1 (UniProt Q9Y530) | -0.793 | 0.407 | 0.708
DDX46 (UniProt Q7L014) | -1.2 | 0.411 | 0.501
CTTN (UniProt Q14247) | 0.2 | 0.536 | 0.451
GMDS (UniProt O60547) | -0.189 | 0.538 | 0.00997
ANKS1A (UniProt Q92625) | 0.294 | -0.553 | 0.198
SLBP (UniProt Q14493) | -1.06 | -0.736 | 0.179
UPRT (UniProt Q96BW1) | 0.289 | -0.0247 | -0.292
TYW5 (UniProt A2RUC4) | 0.66 | 0.502 | 0.336

Target | thermal stability z-score (potassium arsenate) | thermal stability z-score (lipoamide; [1]) | thermal stability z-score (lipoamide; arsenate co-treatment: none)
PPP1R18 (UniProt Q6NYC8) | 0.444 | -0.336 | 0.0646
PRRC2A (UniProt P48634) | -0.13 | 0.431 | 0.205
SARS (UniProt P49591) | 2.1 | 1.63 | 1.23
ITM2B (UniProt Q9Y287) | -0.251 | 0.215 | -0.0896
GMPPB (UniProt Q9Y5P6) | -0.104 | -0.503 | -0.625
PSMD6 (UniProt Q15008) | -0.212 | -0.22 | 0.0409
FASN (UniProt P49327) | -1.1 | 0.217 | 0.252
PIKFYVE (UniProt Q9Y2I7) | -0.189 | 0.00547 | -0.0522
CYP2S1 (UniProt Q96SQ9) | -0.647 | -1.14 | -0.765
CD97 (UniProt P48960) | 0.472 | 0.325 | 0.346
RPIA (UniProt P49247) | 0.27 | 0.704 | 0.8
FAM103A1 (UniProt Q9BTL3) | -0.0441 | 1.17 | 0.62
SNAPC1 (UniProt Q16533) | 0.0437 | -0.175 | -0.207
PGM3 (UniProt O95394) | 0.188 | 0.0643 | -0.0248
TMEM181 (UniProt Q9P2C4) | 0.205 | 0.128 | 0.201
LPGAT1 (UniProt Q92604) | 0.251 | -0.218 | 0.0487
NIF3L1 (UniProt Q9GZT8) | 0.115 | -0.14 | -0.407
GNA13 (UniProt Q14344) | -0.441 | 0.187 | 0.347
AK3 (UniProt Q9UIJ7) | -1.11 | -0.869 | -1
COA5 (UniProt Q86WW8) | 0.0388 | -0.51 | -0.761
PTPRJ (UniProt Q12913) | -0.764 | 1.03 | -0.0729
ANXA2 (UniProt P07355) | 0.066 | 1.59 | 1.79
STAM2 (UniProt O75886) | 0.249 | 0.291 | -0.113
BOD1L1 (UniProt Q8NFC6) | -0.589 | 0.583 | 0.352

Target | thermal stability z-score (potassium arsenate) | thermal stability z-score (lipoamide; [1]) | thermal stability z-score (lipoamide; arsenate co-treatment: none)
TSR1 (UniProt Q2NL82) | 0.334 | -0.39 | 0.00573
NAV1 (UniProt Q8NEY1) | 0.073 | -0.0334 | 0.0173
PDRG1 (UniProt Q9NUG6) | 0.203 | 0.0914 | -0.238
CASKIN2 (UniProt Q8WXE0) | 0.938 | -0.798 | 0.441
SPR (UniProt P35270) | 1.36 | 1.28 | 0.634
UBQLN1 (UniProt Q9UMX0) | 0.778 | 2.04 | 2.04
RRBP1 (UniProt Q9P2E9) | -0.458 | 0.226 | 0.25
SART1 (UniProt O43290) | -2.05 | 0.898 | 0.374
FBLN1 (UniProt P23142) | 1.29 | -2.93 | -2.25
KCTD5 (UniProt Q9NXV2) | -1.43 | -1.92 | -1.4
PEX14 (UniProt O75381) | -0.269 | -0.54 | -0.596
STAU1 (UniProt O95793) | -0.275 | -1.06 | -0.199
LMO7 (UniProt Q8WWI1) | -1.54 | 1.17 | 0.27
SDHB (UniProt P21912) | -0.681 | -0.24 | -0.16
TRAF2 (UniProt Q12933) | -4.2 | -0.41 | -0.458
NUTF2 (UniProt P61970) | -0.609 | 0.312 | 0.256
NUP58 (UniProt Q9BVL2) | 0.865 | 2.2 | 0.178
RPS28 (UniProt P62857) | -0.0195 | 0.574 | 0.243
PTK2 (UniProt Q05397) | -0.0048 | 0.189 | 0.122
GADD45GIP1 (UniProt Q8TAE8) | 0.432 | 0.954 | 0.379
SSR3 (UniProt Q9UNL2) | 0.0314 | -0.665 | -0.443
NUDT2 (UniProt P50583) | -0.0285 | -0.303 | -0.0026
UBE2R2 (UniProt Q712K3) | -0.279 | 0.8 | 0.536
